The record followed here is publication PMC8076300, “A novel cystathionine γ-lyase inhibitor, I194496, inhibits the growth and metastasis of human TNBC via downregulating multiple signaling pathways” (Scientific Reports, 2021).

This assay deals with T1, cystathionine γ-lyase (CSE) (Homo sapiens, UniProt P32929).
T1 construct: gene CTH
In words: methylene blue H2S production assay with purified recombinant CSE, L-cysteine substrate. The format is biochemical.

T1 sequence (P32929 whole entry): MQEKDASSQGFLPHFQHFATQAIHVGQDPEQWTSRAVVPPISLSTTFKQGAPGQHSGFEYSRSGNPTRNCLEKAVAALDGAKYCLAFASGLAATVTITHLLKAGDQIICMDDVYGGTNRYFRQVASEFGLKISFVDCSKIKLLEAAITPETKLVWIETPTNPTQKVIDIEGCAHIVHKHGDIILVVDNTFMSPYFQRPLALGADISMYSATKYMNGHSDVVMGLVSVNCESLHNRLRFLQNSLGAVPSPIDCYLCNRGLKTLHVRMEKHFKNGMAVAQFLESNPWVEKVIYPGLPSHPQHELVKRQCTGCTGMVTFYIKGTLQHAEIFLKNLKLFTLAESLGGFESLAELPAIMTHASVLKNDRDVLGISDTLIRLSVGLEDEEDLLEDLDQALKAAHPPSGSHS

On to `COc1ccc(-c2cc(C(F)F)n3ncc(C(=O)Nc4ccc(S(=O)(=O)Nc5ccccc5OC)cc4)c3n2)cc1` [I194496, 7-(difluoromethyl)-N-{4-[(2-methoxyanilino)sulfonyl]phenyl}-5-(4-methoxyphenyl)pyrazolo[1,5-a]pyrimidine-3-carboxamide], for which the half-inhibitory concentration (IC50) turned out to be 790 µM.

One may read the IC50 as the concentration that inhibits the measured activity by half.
